Patent publication US7632870B2, “Composition based on substituted 1,3-diphenylprop-2-en-1-one derivatives, preparation and uses thereof” (Genfit, priority 2002, dated 2009)

Tests used:
PPARα = target: T1, PPARα (Homo sapiens, UniProt Q07869); assay: PPARα/Gal4 transactivation system in RK13 cells (luciferase reporter); assay type: cell-based, rabbit; conditions: 24 hours
T1 construct: expressed in transfected cells; host or cells: RK13 cells
T1 sequence (Q07869 239-466 limits assumed): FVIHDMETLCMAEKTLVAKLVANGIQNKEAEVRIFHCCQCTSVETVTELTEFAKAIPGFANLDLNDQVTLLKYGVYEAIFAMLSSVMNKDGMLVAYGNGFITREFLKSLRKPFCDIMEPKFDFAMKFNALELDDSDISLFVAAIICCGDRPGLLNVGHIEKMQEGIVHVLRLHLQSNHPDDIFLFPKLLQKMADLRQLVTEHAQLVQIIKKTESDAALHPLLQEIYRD
Protocol: RK13 cells were incubated with the different compounds at concentrations of 10, 30 and 100 μM or 1, 10 and 100 μM for 24 hours. The results are expressed as the induction factor (luminescent signal relative to untreated cells) after the different treatments.
(§1) PPAR activation was tested in vitro in RK13 fibroblast cell lines by measuring the transcriptional activity of chimeras composed of the DNA binding domain of the yeast gal4 transcription factor and the ligand binding domain of the different PPARs. These latter results were then confirmed in cell lines according to the following protocols:
(§2) RK13 cells were from ECACC (Porton Down, UK) and were grown in DMEM medium supplemented with 10% (V/N) fetal calf serum, 100 U/ml penicillin (Gibco, Paisley, UK) and 2 mM L-glutamine (Gibco, Paisley, UK). The culture medium was changed every two days. Cells were kept at 37° C. in a humidified 95% air/5% CO2 atmosphere.
(§3) The plasmids pG5TkpGL3, pRL-CMV, pGal4-hPPRAα, pGal4-hPPRAγ and pGal4-φ have been described by Raspe, Madsen et al. (1999). The pGal4-mPPRAα and pGal4-hPPRAγ constructs were obtained by cloning into the pGal4-φ vector of PCR-amplified DNA fragments corresponding to the DEF domains of the human PPARα and PPRAγ nuclear receptors.
[…] At the end of the experiment, the cells were lysed (Gibco, Paisley, UK) and luciferase activity was determined with a Dual-Luciferase™ Reporter Assay System kit (Promega, Madison, Wis., USA) according to the supplier's instructions as previously described (Raspe, Madsen et al. 1999).

[1] = system: Apo E2/E2 transgenic mice; assay: Effects on triglyceride and cholesterol metabolism in vivo
Protocol: Apo E2/E2 transgenic mice were kept on a 12-hour light/dark cycle at a constant temperature of 20±3° C. After a 1 week acclimation, the mice were weighed and divided into groups of 6 animals selected so that body weight would be uniformly distributed. The test compounds were suspended in carboxymethylcellulose and administered by intragastric gavage at the indicated doses, once a day for 7 or 8 days. Animals had access to food and water ad libitum. At the end of the experiment the animals were weighed and sacrificed under anesthesia. Blood was collected on EDTA. Plasma was prepared by centrifugation at 3000 rpm for 20 minutes. Liver samples were taken and stored frozen in liquid nitrogen for subsequent analysis.
Serum lipid concentrations (total cholesterol and free cholesterol, triglycerides and phospholipids) were determined by a colorimetric assay (Boehringer, Mannheim, Germany) according to the supplier's instructions. Serum concentrations of apolipoproteins AI, AII and CIII were determined as previously described (Raspe et al. J. Lipid Res. 40, 2099-2110, 1999, Asset G et al., Lipids, 34, 39-44, 1999).

PPARγ = target: T2, PPARγ (Homo sapiens, UniProt P37231); assay: PPARγ/Gal4 transactivation system in RK13 cells (luciferase reporter); assay type: cell-based; conditions: 24 hours
T2 construct: expressed in transfected cells; host or cells: RK13 cells
T2 sequence (P37231 238-503 limits assumed): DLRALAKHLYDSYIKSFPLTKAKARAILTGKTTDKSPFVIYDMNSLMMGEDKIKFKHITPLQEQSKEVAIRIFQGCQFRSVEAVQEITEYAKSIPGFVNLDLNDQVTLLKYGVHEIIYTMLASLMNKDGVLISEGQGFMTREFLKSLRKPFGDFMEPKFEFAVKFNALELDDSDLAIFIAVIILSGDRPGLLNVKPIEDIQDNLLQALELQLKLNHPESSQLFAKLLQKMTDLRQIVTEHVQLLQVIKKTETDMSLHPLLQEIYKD
Protocol: RK13 cells were incubated with the different compounds at concentrations of 1, 10 and 100 μM for 24 hours. The results are expressed as the induction factor (luminescent signal relative to untreated cells) after the different treatments.
as §1, §2, §3
RK13 cells were seeded in 24-well culture dishes at 5×10^4 cells/well and transfected for 2 hours with the reporter plasmid pG5TkpGL3 (50 ng/well), the expression vectors pGal4-φ, pGal4-mPPRAα, pGal4-hPPRAα, pGal4-hPPRAγ (100 ng/well) and the transfection efficiency control vector PRL-CMV (1 ng/well) according to the previously described protocol (Raspe, Madsen et al. 1999), then incubated for 36 hours with the test compounds. At the end of the experiment, the cells were lysed (Gibco, Paisley, UK) and luciferase activity was determined with a Dual-Luciferase™ Reporter Assay System kit (Promega, Madison, Wis., USA) according to the supplier's instructions as previously described (Raspe, Madsen et al. 1999).

LDL = assay: Protection against LDL oxidation by copper (conjugated diene formation); assay type: biochemical; conditions: FIG. 1-3; compound at 10^-4M; copper alone 348
Protocol: LDL oxidation is an important alteration and plays a predominant role in the establishment and development of atherosclerosis (Jurgens, Hoff et al. 1987). […] Unless otherwise indicated, the reagents were from Sigma (St Quentin, France).
LDL were prepared according to the method described by Lebeau et al. (Lebeau, Furman et al. 2000).
The solutions of test compounds were prepared at 10^−2 M concentration in bicarbonate buffer (pH 9) and diluted in PBS to obtain final concentrations ranging from 0.1 to 100 μM for a total ethanol concentration of 1% (V/V).
Prior to oxidation, EDTA was removed from the LDL preparation by dialysis. Oxidation then took place at 30° C. by addition of 100 μl of 16.6 μM CuSO4 solution to 160 μL of LDL (125 μg protein/ml) and 20 μl of a test compound solution. The formation of dienes, the species under observation, was followed by measuring optical density at 234 nm in the samples treated with the compounds but in the presence or absence of copper. Optical density at 234 nm was measured every 10 minutes for 8 hours in a thermostated spectrophotometer (Tecan Ultra 380). The analyses were performed in triplicate. The compounds were considered to have antioxidant activity when they induced a longer lag phase and reduced the rate of oxidation and the amount of dienes formed in comparison with the control sample. […] FIGS. 1, 2 and 3 give an example of the results illustrating the antioxidant properties of compounds 2 and 5.

Row | SMILES | Induction factor (luminescent signal relative to untreated cells) (PPARα; 1 μM) | Induction factor (luminescent signal relative to untreated cells) (PPARα; 10 μM, listed as Cp17) | triglycerides in large sized lipoparticles (exclusion chromatography) ([1]; gavage 200 mg/kg for 7 days, FIG. 3-3) | cholesterol in large sized lipoparticles (exclusion chromatography) ([1]; gavage 200 mg/kg for 7 days, FIG. 3-4) | Induction factor (luminescent signal relative to untreated cells) (PPARγ; 1 μM) | Induction factor (luminescent signal relative to untreated cells) (PPARγ; 10 μM) | Induction factor (luminescent signal relative to untreated cells) (PPARγ; 10 μM, listed as Cp17) | Induction factor (luminescent signal relative to untreated cells) (PPARγ; 100 μM) | maximum amount of conjugated dienes formed (LDL) | Induction factor (luminescent signal relative to untreated cells) (PPARα; 1 μM, listed as Cp33) | Induction factor (luminescent signal relative to untreated cells) (PPARα; 10 μM, listed as Cp33) | Induction factor (luminescent signal relative to untreated cells) (PPARα; 100 μM, listed as Cp33) | triglycerides in large sized lipoparticles (exclusion chromatography) ([1]; 50 mg/kg/day for 8 days, FIG. 3-11) | cholesterol in large sized lipoparticles (exclusion chromatography) ([1]; 50 mg/kg/day for 8 days, FIG. 3-12) | Induction factor (luminescent signal relative to untreated cells) (PPARγ; 100 μM, listed as Cp33)
1 | Cc1cc(/C=C/C(=O)c2ccc(Cl)cc2)cc(C)c1OC(C)(C)C(=O)O [Compound 17, 1-[4-chlorophenyl]-3-[3,5-dimethyl-4-carboxydimethylmethyloxyphenyil]prop-2-en-1-one] | 79.76 | 85.69 | decreased | decreased | 15.37 | 25 | 24.92 | 6.13 | 327 nmol per mg of LDL | – | – | – | – | – | –
2 | CCCCCCOc1ccc(C(=O)/C=C/c2cc(C)c(OC(C)(C)C(=O)O)c(C)c2)cc1 [Compound 33, 1-[4-hexyloxyphenyl]-3-[3,5-dimethyl-4-carboxydimethylmethyloxyphenyl]prop-2-en-1-one] | – | – | – | – | 15.65 | 33.90 | – | 45.6 | – | 22.05 | 44.52 | 77.62 | decrease | decrease | 45.58
